From patent US20230106592A1, “METHOD FOR TREATING CANCER USING A COMBINATION OF DNA DAMAGING AGENTS AND ATR INHIBITORS” (Vertex Pharmaceuticals Incorporated, priority 2015, published 2023)

Test: Phase I trial, combination with carboplatin: adverse events and DLTs
Type: in vivo, human
Protocol: Pts with advanced solid tumors enrolled in 2 sequential parts.
In part A, single pt cohorts received a compound of Formula A-2 once weekly in 21-day cycles with 3+3 dose escalation cohorts being implemented if grade 2 drug-related adverse events (AEs) occurred. […] If a DLT was reported, the cohort was expanded to include 3 additional pts with subsequent dose escalation being permitted if no further DLTs occurred. Paired pre- and post-treatment biopsies from selected pts in part B were assessed for pCHK1 levels by immunohistochemistry. Models based on preclinical and clinical data were used to simulate hematologic toxicities and pCHK1 inhibition for pts treated with a compound of Formula A-2 and CP.

[1] = A-2 90 mg/m2 + Carboplatin AUC 5 (n = 3)
[2] = A-2 90 mg/m^2 + Carboplatin AUC5 (N = 6)
[3] = A-2 120 mg/m2 + Carboplatin AUC 4 (n = 3)
[4] = A-2 120 mg/m2 + Carboplatin AUC 5 (n = 3)
[5] = A-2 120 mg/m^2 + Carboplatin AUC4 (N = 3)

CNCc1ccc(-c2cc(-c3nc(-c4ccc(S(=O)(=O)C(C)C)cc4)cnc3N)on2)cc1 [Compound A-2]
2: Treatment related adverse event: Alopecia, All [2] | Treatment related adverse event: Neutropenia, All [2] | Treatment related adverse event: Thrombocytopenia, All [2]
2 (20.0) n (%): Treatment related adverse event: Alopecia, All Grades [1] | Treatment related adverse event: Thrombocytopenia, All Grades [1]
4 (40.0) n (%): Treatment related adverse event: Anemia, All Grades [1] | Treatment related adverse event: Fatigue, All Grades [1]
1 (10.0) n (%): Treatment related adverse event: Any Event, Grade ≥ 3 [1] | Treatment related adverse event: Flushing, All Grades [1] | Treatment related adverse event: Infusion related reaction, All Grades [1] | Treatment related adverse event: Neutropenia, Grade ≥ 3 [1] | Treatment related adverse event: Pruritus, All Grades [1]
3 (30.0) n (%): Treatment related adverse event: Nausea, All Grades [1] | Treatment related adverse event: Neutropenia, All Grades [1]
1: Treatment related adverse event: Nausea, All [2] | Treatment related adverse event: Neutropenia, ≥3 [2] | Treatment related adverse event: Anemia, All [5] | Treatment related adverse event: Flushing, All [5] | Treatment related adverse event: Nausea, All [5] | Treatment related adverse event: Thrombocytopenia, All [5]
3: Treatment related adverse event: Anemia, All [2] | Treatment related adverse event: Fatigue, All [2]
3 (100) n (%): Treatment related adverse event: Any Event, All Grades [4]
1 (33.3) n (%): Treatment related adverse event: Anemia, All Grades [3] | Treatment related adverse event: Flushing, All Grades [3] | Treatment related adverse event: Nausea, All Grades [3] | Treatment related adverse event: Pruritus, All Grades [3] | Treatment related adverse event: Thrombocytopenia, All Grades [3] | Treatment related adverse event: Fatigue, All Grades [4] | Treatment related adverse event: Hypersensitivity, All Grades [4] | Treatment related adverse event: Hypersensitivity, Grade ≥ 3 [4] | Treatment related adverse event: Infusion related reaction, All Grades [4] | Treatment related adverse event: Neutropenia, Grade ≥ 3 [4] | Treatment related adverse event: Thrombocytopenia, All Grades [4]
0: Treatment related adverse event: Alopecia, ≥3 [2] | Treatment related adverse event: Anemia, ≥3 [2] | Treatment related adverse event: Fatigue, ≥3 [2] | Treatment related adverse event: Flushing, All [2] | Treatment related adverse event: Flushing, ≥3 [2] | Treatment related adverse event: Headache, All [2] | Treatment related adverse event: Headache, ≥3 [2] | Treatment related adverse event: Hypertension, All [2] | Treatment related adverse event: Hypertension, ≥3 [2] | Treatment related adverse event: Nausea, ≥3 [2] | Treatment related adverse event: Neuropathy peripheral, All [2] | Treatment related adverse event: Neuropathy peripheral, ≥3 [2] | Treatment related adverse event: Respiratory tract infection, ≥3 [2] | Treatment related adverse event: Thrombocytopenia, ≥3 [2] | Treatment related adverse event: Vomiting, All [2] | Treatment related adverse event: Vomiting, ≥3 [2] | Treatment related adverse event: Alopecia, All [5] | Treatment related adverse event: Alopecia, ≥3 [5] | Treatment related adverse event: Anemia, ≥3 [5] | Treatment related adverse event: Fatigue, All [5] | Treatment related adverse event: Fatigue, ≥3 [5] | Treatment related adverse event: Flushing, ≥3 [5] | Treatment related adverse event: Headache, All [5] | Treatment related adverse event: Headache, ≥3 [5] | Treatment related adverse event: Hypertension, All [5] | Treatment related adverse event: Hypertension, ≥3 [5] | Treatment related adverse event: Nausea, ≥3 [5] | Treatment related adverse event: Neuropathy peripheral, All [5] | Treatment related adverse event: Neuropathy peripheral, ≥3 [5] | Treatment related adverse event: Neutropenia, All [5] | Treatment related adverse event: Neutropenia, ≥3 [5] | Treatment related adverse event: Respiratory tract infection, All [5] | Treatment related adverse event: Respiratory tract infection, ≥3 [5] | Treatment related adverse event: Thrombocytopenia, ≥3 [5]
0 n (%): Treatment related adverse event: Alopecia, Grade ≥ 3 [1] | Treatment related adverse event: Anemia, Grade ≥ 3 [1] | Treatment related adverse event: Fatigue, Grade ≥ 3 [1] | Treatment related adverse event: Flushing, Grade ≥ 3 [1] | Treatment related adverse event: Headache, All Grades [1] | Treatment related adverse event: Headache, Grade ≥ 3 [1] | Treatment related adverse event: Hypersensitivity, All Grades [1] | Treatment related adverse event: Hypersensitivity, Grade ≥ 3 [1] | Treatment related adverse event: Infusion related reaction, Grade ≥ 3 [1] | Treatment related adverse event: Nausea, Grade ≥ 3 [1] | Treatment related adverse event: Neuropathy peripheral, All Grades [1] | Treatment related adverse event: Neuropathy peripheral, Grade ≥ 3 [1] | Treatment related adverse event: Pruritus, Grade ≥ 3 [1] | Treatment related adverse event: Thrombocytopenia, Grade ≥ 3 [1] | Treatment related adverse event: Vomiting, All Grades [1] | Treatment related adverse event: Vomiting, Grade ≥ 3 [1] | Treatment related adverse event: Alopecia, All Grades [3] | Treatment related adverse event: Alopecia, Grade ≥ 3 [3] | Treatment related adverse event: Anemia, Grade ≥ 3 [3] | Treatment related adverse event: Any Event, Grade ≥ 3 [3] | Treatment related adverse event: Fatigue, All Grades [3] | Treatment related adverse event: Fatigue, Grade ≥ 3 [3] | Treatment related adverse event: Flushing, Grade ≥ 3 [3] | Treatment related adverse event: Headache, All Grades [3] | Treatment related adverse event: Headache, Grade ≥ 3 [3] | Treatment related adverse event: Hypersensitivity, All Grades [3] | Treatment related adverse event: Hypersensitivity, Grade ≥ 3 [3] | Treatment related adverse event: Infusion related reaction, All Grades [3] | Treatment related adverse event: Infusion related reaction, Grade ≥ 3 [3] | Treatment related adverse event: Nausea, Grade ≥ 3 [3] | Treatment related adverse event: Neuropathy peripheral, All Grades [3] | Treatment related adverse event: Neuropathy peripheral, Grade ≥ 3 [3] | Treatment related adverse event: Neutropenia, All Grades [3] | Treatment related adverse event: Neutropenia, Grade ≥ 3 [3] | Treatment related adverse event: Pruritus, Grade ≥ 3 [3] | Treatment related adverse event: Thrombocytopenia, Grade ≥ 3 [3] | Treatment related adverse event: Vomiting, All Grades [3] | Treatment related adverse event: Vomiting, Grade ≥ 3 [3] | Treatment related adverse event: Alopecia, All Grades [4] | Treatment related adverse event: Alopecia, Grade ≥ 3 [4] | Treatment related adverse event: Anemia, Grade ≥ 3 [4] | Treatment related adverse event: Fatigue, Grade ≥ 3 [4] | Treatment related adverse event: Flushing, All Grades [4] | Treatment related adverse event: Flushing, Grade ≥ 3 [4] | Treatment related adverse event: Headache, All Grades [4] | Treatment related adverse event: Headache, Grade ≥ 3 [4] | Treatment related adverse event: Infusion related reaction, Grade ≥ 3 [4] | Treatment related adverse event: Nausea, Grade ≥ 3 [4] | Treatment related adverse event: Neuropathy peripheral, All Grades [4] | Treatment related adverse event: Neuropathy peripheral, Grade ≥ 3 [4] | Treatment related adverse event: Pruritus, All Grades [4] | Treatment related adverse event: Pruritus, Grade ≥ 3 [4] | Treatment related adverse event: Thrombocytopenia, Grade ≥ 3 [4] | Treatment related adverse event: Vomiting, All Grades [4] | Treatment related adverse event: Vomiting, Grade ≥ 3 [4]
9 (90.0) n (%): Treatment related adverse event: Any Event, All Grades [1]
